Reference: EP4567035A1, “NOVEL COMPOUND AS HYPOXIA-INDUCIBLE FACTOR 1(HIF-1) INHIBITOR OR VASCULAR ENDOTHELIAL GROWTH FACTOR (VEGF) INHIBITOR, AND PHARMACEUTICAL COMPOSITION COMPRISING SAME” (Nextgen Bioscience Co., Ltd., priority 2022, dated 2024)

Assays:
HIF-1α = target: T1, HIF-1α (Homo sapiens, UniProt Q16665); assay: Analysis of HIF-1α protein expression (Western blot) in ARPE-19 cells under mixed hypoxic condition; assay type: cell-based; conditions: values marked * in the table, mixed hypoxic condition (1% oxygen + CoCl2) for 24 hours, concentration range at which HIF-1α expression is reduced by 50% vs untreated control, read-out: IC50 HIF-1α, Hypoxia(24h)
T1 construct: endogenous in cells; host or cells: ARPE-19 (ATCC CRL-2302)
T1 sequence (Q16665 whole entry): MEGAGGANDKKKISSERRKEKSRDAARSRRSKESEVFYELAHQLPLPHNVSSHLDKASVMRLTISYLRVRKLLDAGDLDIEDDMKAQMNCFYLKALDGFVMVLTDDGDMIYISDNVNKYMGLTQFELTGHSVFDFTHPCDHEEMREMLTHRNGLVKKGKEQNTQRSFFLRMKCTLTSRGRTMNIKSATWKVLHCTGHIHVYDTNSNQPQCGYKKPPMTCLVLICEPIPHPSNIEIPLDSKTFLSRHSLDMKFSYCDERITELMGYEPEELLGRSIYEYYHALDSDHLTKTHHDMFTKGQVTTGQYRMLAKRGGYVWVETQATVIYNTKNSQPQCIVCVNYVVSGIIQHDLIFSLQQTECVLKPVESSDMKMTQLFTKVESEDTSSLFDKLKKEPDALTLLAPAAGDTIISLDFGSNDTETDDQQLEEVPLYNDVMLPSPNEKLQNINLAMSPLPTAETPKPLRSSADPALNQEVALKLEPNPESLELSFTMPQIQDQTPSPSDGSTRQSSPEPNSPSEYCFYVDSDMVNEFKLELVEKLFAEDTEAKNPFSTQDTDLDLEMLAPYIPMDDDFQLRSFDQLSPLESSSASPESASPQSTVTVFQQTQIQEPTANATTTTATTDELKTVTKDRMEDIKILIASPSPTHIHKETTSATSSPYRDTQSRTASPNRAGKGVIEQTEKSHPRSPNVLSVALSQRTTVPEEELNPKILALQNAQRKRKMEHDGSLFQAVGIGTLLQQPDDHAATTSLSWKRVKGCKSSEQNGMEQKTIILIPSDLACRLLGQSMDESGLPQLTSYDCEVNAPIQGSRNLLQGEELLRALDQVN
Summary of the method: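 ARPE-19 cells were pretreated 16 h or 2 h with compound (0.1 nM–10 µM, serum-free DMEM/F12), then held 1 h or 24 h in mixed hypoxia (1% O2 plus CoCl2). HIF-1α was quantified by Western blot against β-actin; the concentration range giving ≥50% reduction vs untreated control was reported.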

VEGF = assay: Evaluation of VEGF protein secretion level (Human VEGF ELISA) in ARPE-19 cell medium under hypoxic conditions; assay type: cell-based; conditions: ARPE-19 cells; pretreated 2 hours, 24 hours hypoxic conditions; secreted VEGF in medium supernatant by ELISA; concentration range reducing VEGF by 50% vs untreated control; read-out: IC50 VEGF
Summary of the method: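 Human ARPE-19 cells were pretreated 2 h with compound (0.1 nM–10 µM, in DMEM/F12 with 1% FBS), then held 24 h in hypoxia (1% O2, 5% CO2). Secreted VEGF in the supernatant was quantified by ELISA (A450). The value is the concentration range giving ≥50% VEGF reduction versus untreated control.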

| Structure (SMILES) | DC50 (HIF-1α) | IC50 (VEGF) |
| --- | --- | --- |
| O=C(NCc1cc(F)cc(-c2cnn(C3CCCCC3)c2)c1)c1ncnc2nc(C3CCCC3)[nH]c12 [Example 139, N-(3-(1-cyclohexyl-1H-pyrazol-4-yl)-5-fluorobenzyl)-8-cyclopentyl-7H-purine-6-carboxamide] | < 0.1 µM | < 0.1 µM |
| O=C(NCc1cc(F)cc(-c2cnn(C3CCOC3)c2)c1)c1ncnc2nc(C3CCCC3)[nH]c12 (stereo not drawn) [Example 140, 8-Cyclopentyl-N-(3-fluoro-5-(1-(tetrahydrofuran-3-yl)-1H-pyrazol-4-yl)benzyl)-7H-purine-6-carboxamide] | < 0.1 µM | > 10 µM |
| O=C(NCc1cc(F)cc(-c2cnn(-c3cscn3)c2)c1)c1ncnc2nc(C3CCCC3)[nH]c12 [Example 141, 8-Cyclopentyl-N-(3-fluoro-5-(1-(thiazol-4-yl)-1H-pyrazol-4-yl)benzyl)-7H-purine-6-carboxamide] | < 0.1 µM | < 0.1 µM |
| Cn1ccc(Nc2cc(F)cc(CNC(=O)c3ncnc4nc(C5CCCC5)[nH]c34)c2)c1 [Example 142, 8-Cyclopentyl-N-(3-fluoro-5-((1-methyl-1H-pyrrol-3-yl)amino)benzyl)-7H-purine-6-carboxamide] | 0.1 to 1 µM | > 10 µM |
| O=C(NCc1cc(F)cc(-c2cnn(-c3cc[s+]([O-])c3)c2)c1)c1ncnc2nc(C3CCCC3)[nH]c12 (stereo not drawn) [Example 143, 8-Cyclopentyl-N-(3-fluoro-5-(1-(1-oxidothiophen-3-yl)-1H-pyrazol-4-yl)benzyl)-7H-purine-6-carboxamide] | 1 to 10 µM | > 10 µM |
| Cn1cc(Nc2cc(F)cc(CNC(=O)c3ncnc4nc(C5CCC(F)(F)C5)[nH]c34)c2)cn1 (stereo not drawn) [Example 144, 8-(3,3-Difluorocyclopentyl)-N-(3-fluoro-5-((1-methyl-1H-pyrazol-4-yl)amino)benzyl)-7H-purine-6-carboxamide] | < 0.1 µM | 0.1 to 1 µM |
| [2H]c1c([2H])c([2H])c(-n2cc(-c3cc(F)cc(CNC(=O)c4ncnc5nc(C6CCCC6)[nH]c45)c3)cn2)c([2H])c1[2H] [Example 145, 8-Cyclopentyl-N-(3-fluoro-5-(1-phenyl-d5-1H-pyrazol-4-yl)benzyl)-7H-purine-6-carboxamide] | < 0.1 µM | 0.1 to 1 µM |
| Cc1nn(-c2ccc(F)cc2)cc1-c1cc(F)cc(CNC(=O)c2ncnc3nc(C4CCCC4)[nH]c23)c1 [Example 146, 8-Cyclopentyl-N-(3-fluoro-5-(1-(4-fluorophenyl)-3-methyl-1H-pyrazol-4-yl)benzyl)-7H-purine-6-carboxamide] | 0.1 to 1 µM | 0.1 to 1 µM |
| Cc1c(-c2cc(F)cc(CNC(=O)c3ncnc4nc(C5CCCC5)[nH]c34)c2)cnn1-c1ccc(F)cc1 [Example 147, 8-Cyclopentyl-N-(3-fluoro-5-(1-(4-fluorophenyl)-5-methyl-1H-pyrazol-4-yl)benzyl)-7H-purine-6-carboxamide] | 0.1 to 1 µM | 0.1 to 1 µM |
| [2H]c1c([2H])c([2H])c(-n2cc(-c3cc(F)cc(CNC(=O)c4ncnc5nc(C6CCC(F)(F)C6)[nH]c45)c3)cn2)c([2H])c1[2H] (stereo not drawn) [Example 148, 8-(3,3-Difluorocyclopentyl)-N-(3-fluoro-5-(1-(phenyl-d5)-1H-pyrazol-4-yl)benzyl)-7H-purine-6-carboxamide] | < 0.1 µM | 0.1 to 1 µM |
| O=C(NCc1cc(F)cc(-n2cc(-c3ccc(F)cc3)cn2)c1)c1ncnc2nc(C3CCCC3)[nH]c12 [Example 149, 8-Cyclopentyl-N-(3-fluoro-5-(4-(4-fluorophenyl)-1H-pyrazol-1-yl)benzyl)-7H-purine-6-carboxamide] | 0.1 to 1 µM | > 10 µM |
| COC(=O)C(Cc1ccc(-n2cc(-c3cc(F)cc(CNC(=O)c4ncnc5nc(C6CCCC6)[nH]c45)c3)cn2)cc1)NC(=O)c1ncnc2nc(C3CCCC3)[nH]c12 (stereo not drawn) [Example 150, Methyl 2-(8-cyclopentyl-7H-purine-6-carboxamido)-3-(4-(4-(3-((8-cyclopentyl-7H-purine-6-carboxamido)methyl)-5-fluorophenyl)-1H-pyrazol-1-yl)phenyl)propanoate] | 0.1 to 1 µM | > 10 µM |
| [2H]C([2H])([2H])n1cc(Nc2cc(F)cc(CNC(=O)c3ncnc4nc(C5CCCC5)[nH]c34)c2)cn1 [Example 151, 8-Cyclopentyl-N-(3-fluoro-5-((1-(methyl-d3)-1H-pyrazol-4-yl)amino)benzyl)-7H-purine-6-carboxamide] | < 0.1 µM | 0.1 to 1 µM |
| [2H]C([2H])([2H])n1cc(Nc2cc(F)cc(CNC(=O)c3ncnc4nc(C5CCC(F)(F)C5)[nH]c34)c2)cn1 (stereo not drawn) [Example 152, 8-(3,3-Difluorocyclopentyl)-N-(3-fluoro-5-((1-(methyl-d3)-1H-pyrazol-4-yl)amino)benzyl)-7H-purine-6-carboxamide] | < 0.1 µM | 0.1 to 1 µM |
| [2H]C1([2H])C(c2nc3ncnc(C(=O)NCc4cc(F)cc(-c5cnn(-c6ccc(F)cc6)c5)c4)c3[nH]2)C([2H])([2H])C([2H])([2H])C1([2H])[2H] [Example 153, 8-(Cyclopentyl-2,2,3,3,4,4,5,5-d8)-N-(3-fluoro-5-(1-(4-fluorophenyl)-1H-pyrazol-4-yl)benzyl)-7H-purine-6-carboxamide] | < 0.1 µM | 0.1 to 1 µM |
